{
  "source": "patent US7884262B2",
  "about": "“Modified DMO enzyme and methods of its use” (Monsanto Technology LLC, priority 2006, dated 2011)",
  "molecules": {"B1": {"name": "DMOw: unaltered (wild type) dicamba monooxygenase sequence from Pseudomonas maltophilia, strain DI-6; U.S. Pat. No. 7,022,896 (protein, UniProt Q5S3I3 2-339, looked up)", "Dicamba O-demethylase, …": "TFVRNAWYVAALPEELSEKPLGRTILDTPLALYRQPDGVVAALLDICPHRFAPLSDGILVNGHLQCPYHGLEFDGGGQCVHNPHGNGARPASLNVRSFPVVERDALIWIWPGDPALADPGAIPDFGCRVDPAYRTVGGYGHVDCNYKLLVDNLMDLGHAQYVHRANAQTDAFDRLEREVIVGDGEIQALMKIPGGTPSVLMAKFLRGANTPVDAWNDIRWNKVSAMLNFIAVAPEGTPKEQSIHSRGTHILTPETEASCHYFFGSSRNFGIDDPEMDGVLRSWQAQALVKEDKVVVEAIERRRAYVEANGIRPAMLSCDEAAVRVSREIEKLEQLEAA"}, "B2": {"name": "DMOc: dicamba monooxygenase (DMO) variant comprising a cysteine at position 112 of SEQ ID NO:1 (protein)", "chain": "MATFVRNAWYVAALPEELSEKPLGRTILDTPLALYRQPDGVVAALLDICPHRFAPLSDGILVNGHLQCPYHGLEFDGGGQCVHNPHGNGARPASLNVRSFPVVERDALIWICPGDPALADPGAIPDFGCRVDPAYRTVGGYGHVDCNYKLLVDNLMDLGHAQYVHRANAQTDAFDRLEREVIVGDGEIQALMKIPGGTPSVLMAKFLRGANTPVDAWNDIRWNKVSAMLNFIAVAPEGTPKEQSIHSRGTHILTPETEASCHYFFGSSRNFGIDDPEMDGVLRSWQAQALVKEDKVVVEAIERRRAYVEANGIRPAMLSCDEAAVRVSREIEKLEQLEAA"}},
  "key": {"[1]": {"tested_on": "nontransgenic tobacco plants", "settings": "for Herbicide damage symptoms: spray", "description": "(§1) Plants in the greenhouse were sprayed with solvent and commercial grade dicamba (Clarity; BASF) using a compressed air, motor-driven, track sprayer with a flat-fan 8002E nozzle traveling at 1.87 mph. Additives included; 28% urea ammonium nitrate at 1.25% v/v and nonionic surfactant at 1.0% v/v. The solution containing dicamba at various concentrations was applied at 182 L/ha ([…]). Soybean field plantings were sprayed with Clarity herbicide at 2.8 kg/ha (2.5 lb/ac).\n(§2) In this study, the concentration of dicamba employed provided a dose of 1.12 kg/ha. […] In this study, treatments were compared using 2.2 kg/ha dicamba on two T1 tobacco plants, one carrying DMOc lacking a chloroplast transit peptide and the other completely lacking the DMOc gene due to genetic segregation."}, "[2]": {"tested_on": "Arabidopsis thaliana expressing the DMOc gene", "settings": "1.12 kg/ha", "description": "(§3) Tobacco, tomato, soybeans and Arabidopsis were used for transgenic expression of the genetically engineered DMOc gene and confirmation of dicamba tolerance in plants expressing the gene. The DMOc coding sequence in binary vector pKLP36 was introduced into A. tumefaciens strain C58C1 containing the disarmed Ti plasmid pMP90 (Koncz and Schell, 1986) by triparental mating (Ditta 1980). The resultant transconjugants were used for tobacco (cv Xanthi) and tomato (cv Rutgers) transformation using the leaf disc protocol described by Horsch et al. (Horsch 1985). Arabidopsis thaliana was transformed by the floral dip technique (Clough and Bent, 1998). Transformation of soybean varieties Thorne and NE-3001 was carried out by cotyledonary-node Agrobacterium-mediated transformation system (Zhang et al., 1999).\nas §1, §2"}, "[3]": {"tested_on": "DMOc-containing transgenic tobacco plants", "description": "as §3, §1, §2"}, "[4]": {"tested_on": "Transgenic tomato plants carrying the genetically engineered DMOc gene", "settings": "first 0.56 kg/ha and subsequently 5.6 kg/ha", "description": "as §3, §1, §2"}, "transgenic soybean lines": {"tested_on": "transgenic soybean lines", "description": "as §3, §1"}, "[5]": {"tested_on": "homoplastidic transgenic tobacco plants containing a chloroplast-encoded dicamba monooxygenase gene"}, "[6]": {"assay": "DMO activity assay (DCSA formation by HPLC), steady state kinetics, pH and temperature optimum", "type": "biochemical", "protocol": "Protein concentrations were determined by Bradford assay with rabbit IgG as standard. Proteins were separated by SDS-PAGE and stained with Coomassie Blue. DMO activity was measured by following the formation of DCSA which was separated by HPLC (Waters Corporation, Milford, Mass.) by using a Discovery C18 column (Supelco, Sigma-Aldrich, St. Louis, Mo.). The retention time for DCSA was 8 minutes and for dicamba was 9.5 minutes. For kinetic studies the DCSA was detected and quantified by fluorescence emission at 420 nm (excitation wavelength 310 nm) after separation on the HPLC column from reaction mixture. Set concentrations of DCSA (12 and 24 μM) were used as quantification standards.\nStock solution of dicamba (100, 200, 400, 800, 1000, 2000, 5000, and 10000 μM), 0.1 M KPi pH 7.2, 0.1 M FeSO4, 0.1 M NADH, and 1 M MgCl2 were used. The assays were performed at 30° C. for 20 minutes and the reaction was quenched by addition of 40 μl of H2SO4. For activity measurements DMO was coupled with an excess of purified ferredoxin and reductase from P. maltophilia strain DI-6.\nSince the assay for DMO activity was a discontinuous assay, it was important to establish the time for which the assay has to be run in order to obtain meaningful kinetic parameters. The assay thus has to be run under initial condition as the amount of DCSA produced is linear for the time the assay is being run (FIG. 4). […] (FIG. 6).\nThe Michaelis-Menten parameters were determined by fitting the data to a nonlinear steady-state equation (Equation 1). The data were analyzed using Sigma plot 8.0 (Jandel Scientific). Vo=Vmax*[S]/(Km+[S]) Equation 1\nThe optimum pH and temperature were also determined for DMOw and DMOc. Optimum pH was measured at 30° C. for 20 minutes and optimum temperature determination was measured also for 20 minutes at pH 7.2 for both forms of the enzyme. The results are summarized in FIGS. 7-9 and are discussed below."}, "[7]": {"settings": "steady state, substrate dicamba"}, "[8]": {"settings": "steady state, substrate dicamba, 30° C., 20 minutes"}},
  "note": "Where “and” joins values, the source holds several entries; their conditions need not be identical. Identical values can stand only once. Entries after “also recorded” stand apart in the source; their conditions may differ. Like-named read-outs stand apart in the source and are kept apart here.",
  "data": [
    {"molecule": "COc1c(Cl)ccc(Cl)c1C(=O)O", "note": "[dicamba, 3,6-dichloro-o-anisic acid]", "values": [
      {"measurement": "Herbicide damage symptoms", "setting": "[1]; 0.017 kg/ha", "result": "easily detected"},
      {"measurement": "Herbicide damage symptoms", "setting": "[1]; 0.28 kg/ha", "result": "quite severe"},
      {"measurement": "Herbicide damage symptoms", "setting": "[1]; 0.56 kg/ha", "result": "quite severe"},
      {"measurement": "damage caused by dicamba treatment", "setting": "[1]; 2.2 kg/ha, T1 plant lacking the DMOc gene due to genetic segregation", "result": "fully susceptible"},
      {"measurement": "damage", "setting": "[1]; 5.6 kg/ha, post-emergence, nontransgenic plant", "result": "severe damage"},
      {"measurement": "tolerance", "setting": "[2]", "result": "strong tolerance"},
      {"measurement": "symptoms", "setting": "[3]; 5.6 kg/ha, post-emergence", "result": "few, if any symptoms"},
      {"measurement": "dicamba treatment level tolerated", "setting": "[3]; transgenic tobacco expressing DMOc", "result": "≥ 5.6", "unit": "kg/ha"},
      {"measurement": "damage", "setting": "[4]", "result": "no damage"},
      {"measurement": "tolerance", "setting": "transgenic soybean lines; 2.8 kg/ha (highest level tested), two years of field trials", "result": "strong tolerance"},
      {"measurement": "tolerance", "setting": "transgenic soybean lines; 2.8 kg/ha, greenhouse, most lines", "result": "significant tolerance"},
      {"measurement": "tolerance", "setting": "transgenic soybean lines; 5.6 kg/ha, greenhouse, most lines", "result": "significant tolerance"},
      {"measurement": "dicamba treatment level tolerated", "setting": "transgenic soybean lines; DMOc in nuclear genome of soybean plants", "result": 2.8, "unit": "kg/ha"},
      {"measurement": "damage", "setting": "[5]; 28 kg/ha (25 lb/ac), T1-T3 progeny", "result": "no apparent damage"},
      {"measurement": "damage", "setting": "[5]; 112 kg/ha", "result": "only transitory damage"},
      {"measurement": "damage", "setting": "[5]; 224 kg/ha", "result": "only transitory damage"},
      {"measurement": "dicamba tolerance level", "setting": "[5]; DMOc gene in chloroplast genome", "result": "at least 28 kg/ha"}
    ]},
    {"molecule": "B1", "values": [
      {"measurement": "optimum pH for the assay", "setting": "[6]; 0.1 M Kpi buffer, 30° C., 20 minutes", "result": 7.2},
      {"measurement": "Km", "setting": "[6]; DMOw, Study no. 1-3", "result": "49 µM and 46 µM"},
      {"measurement": "Vmax", "setting": "[6]; DMOw, Study no. 1-3", "result": "633 ± 24 nmol/min/mg and 583 ± 18 nmol/min/mg and 590 ± 19 nmol/min/mg"},
      {"measurement": "Km", "setting": "[6]; Michaelis-Menten parameters", "result": "49 ± 7", "unit": "µM"},
      {"measurement": "Vmax", "setting": "[6]; Michaelis-Menten parameters", "result": "633 ± 24", "unit": "nmol/min/mg"},
      {"measurement": "optimum temperature", "setting": "[6]; pH 7.2, 20 minutes", "result": "approximately 37 °C"},
      {"measurement": "Vmax", "setting": "[6]; [7]", "result": "633 ± 24 × 10^−3 U/mg"},
      {"measurement": "kcat", "setting": "[6]; [7]", "result": 36.63, "unit": "s⁻¹"},
      {"measurement": "Km", "setting": "[6]; [8]", "result": 49, "unit": "µM"}
    ]},
    {"molecule": "B2", "values": [
      {"measurement": "catalytic efficiency relative to DMOw", "setting": "[6]; DMOc vs DMOw", "result": "five times better enzyme than DMOw; also recorded: five times more efficient than DMOw"},
      {"measurement": "Km", "setting": "[6]; DMOc, Study no. 1-2", "result": "21 µM and 20 µM"},
      {"measurement": "Vmax", "setting": "[6]; DMOc, Study no. 1-2", "result": "713 ± 43 nmol/min/mg and 676 ± 37 nmol/min/mg"},
      {"measurement": "Km", "setting": "[6]; Michaelis-Menten parameters", "result": "20.5 ± 5", "unit": "µM"},
      {"measurement": "Vmax", "setting": "[6]; Michaelis-Menten parameters", "result": "676 ± 37", "unit": "nmol/min/mg"},
      {"measurement": "Vmax", "setting": "[6]; [7]", "result": "676 ± 37 × 10^−3 U/mg"},
      {"measurement": "kcat", "setting": "[6]; [7]", "result": 70.41, "unit": "s⁻¹"},
      {"measurement": "Km", "setting": "[6]; [8]", "result": 20, "unit": "µM"}
    ]}
  ]
}
